Assay results: US20240003872A1, “METHODS FOR ASSAYING AND MEASURING THE EFFICACY OF ANTI-NAUSEA COMPOUNDS” (priority 2020, published 2024)
Entries after “also recorded” stand apart in the source; their conditions may differ.

What was measured:
[1] = tested on: human intestinal smooth muscle cells (HISMCs); experiment: HISMC/collagen matrix cell contraction assay; format: cell-based
Procedure: This assay was used to study the ability of […] to reorganize and contract in a collagen matrix. All procedures were done accordingly to protocols described by Dr. Alexander (5-HT3 dependent smooth muscle contraction assay, revised Aug. 30, 2012). The assay consisted in the preparation of collagen solution and in the polymerization and release of […]/collagen matrices. For 12 mL of collagen/[…], 15.0 mg of rat tail collagen was dissolved in 3.2 mL of cold 0.012M HCL. The solution was placed for 30 min in a rocker machine for gently agitation to avoid introducing bubbles. Then, 0.8 mL of cold PBS was added to the tube, mixed well, and kept on ice. The pH of the collagen solution was quickly titrated with 0.5 M NaOH to 7.45, and monitored by pH strips. The final collagen concentration was 1.25 mg/mL. The neutralized cold collagen solution was mixed with 12 mL of cold SMCM/1.5% dialyzed FBS containing […] at desire cell density (1×10^5 cells/mL). 0.5 mL of collagen/[…] mixture was added per well in 24-well plates and was incubated for 1 h at 37° C., 5% CO2. After collagen polymerization, 0.5 mL of culture medium with or without two-time concentration of drug treatments was added atop each collagen gel lattice. The polymerized collagen matrix containing […] was released from the edges of the well with a sterilized heat-blunted Pasteur pipette tip to allow them to float in culture medium, and contraction occurred with or without agonist addition in the absence of external mechanical load. The collagen gel size change (contraction index) was measured by morphometric analysis at various times (0, 24, 48, and 72 h). The culture plates were analyzed in triplicate and monitored at 24 h intervals. At the end of each time point, the plates were scanned via an Epson flatbed scanner.

[2] = tested on: college students with self-rated high susceptibility to motion sickness; conditions: 940 mg ginger root or 100 mg Dramamine 25-30 minutes prior to test; P < .001; cited from earlier work
[3] = tested on: women after laparascopic gynaecological surgery; conditions: ginger, 1.25 mg droperidol, vs placebo; cited from earlier work
[4] = tested on: Women undergoing gynecological surgery; conditions: 1.0 g ginger or 10 mg metochlopramide orally prior to surgery; P < .05; cited from earlier work
[5] = tested on: women after laparascopic gynaecological surgery; conditions: post-operative; given one hour prior to anaesthesia; placebo 41%; cited from earlier work

Compound: Cl.NCCc1c[nH]c2ccc(O)cc12 [5-HT, 5-Hydroxytryptamine hydrochloride]
- contraction of HISMC gels induced by agonist ([1]; 5-HT at 10^−7M, 10^−8M and 10^−9M): induced dose and time dependent contraction

Compound: C[C@@H](O[C@H]1OCCN(Cc2n[nH]c(=O)[nH]2)[C@H]1c1ccc(F)cc1)c1cc(C(F)(F)F)cc(C(F)(F)F)c1 [Aprepitant]
- effect on HISMC/collagen gel contraction ([1]; different concentrations, with or without 5-HT3): attenuated collagen gel contraction only at high concentrations, 10^−4 M and not significantly

Compound: Cc1nccn1CC1CCc2c(c3ccccc3n2C)C1=O (centres unmarked) [Ondansetron]
- effect on 5-HT induced HISMC/collagen matrix contraction ([1]; with 5-HT (10^−7M), different concentrations, 0-72 h): reduced; also recorded: inhibited HISMCs contractions in a concentration- and time-dependent manner
- effect on HISMC/collagen matrix contraction without 5-HT ([1]; without 5-HT, different concentrations, 0-72 h): inhibited HISMCs contractions in a concentration- and time-dependent manner

Compound: CN(C)CCOC(c1ccccc1)c1ccccc1 [diphenhydramine]
- reducing vection induced motion sickness versus placebo (time in induced motion) [2]: more effective than dried chickweed herb placebo

Compound: O=C(CCCN1CC=C(n2c(=O)[nH]c3ccccc32)CC1)c1ccc(F)cc1 [droperidol]
- decrease in nausea or vomiting post-surgery [3]: no differences

Compound: CCN(CC)CCNC(=O)c1cc(Cl)c(N)cc1OC [metochlopramide]
- effectiveness versus placebo for post-operative nausea and vomiting control [4]: significantly more effective than placebo
- patients nauseated [5]: placebo, 27%
